The results in this text go back to paper PMC6009867, “Microwave-assisted synthesis and bioevaluation of new sulfonamides” (Journal of Enzyme Inhibition and Medicinal Chemistry, 2017).

SMILES strings stand for the structures.

Data set [1] can be described thus: Cytotoxicity assay (MTT), HGF cells. Conditions: human, gingival fibroblasts (HGF), normal oral cells. The class given is cell-based. How it is done:
(§1) The cytotoxicity of the compounds were assayed toward human oral squamous cell carcinoma cell lines derived from gingiva tissue (CA9–22) and tongue (HSC-2, HSC-3, HSC-4), and human normal oral cells (gingival fibroblasts, HGF; periodontal ligament fibroblasts, HPLF; pulp cells, HPC) with some minor modifications[16]^,[17]^,[26]^,[30–33]. In brief, cells were cultured in DMEM supplemented with 10% fetal bovine serum (FBS). Cells (2.5 × 10^3 cells/well) were inoculated and incubated for 48 h to achieve complete adherence. Near confluent cells were incubated for a further 48 h in the fresh culture medium containing each test compound (3.12, 6.25, 12.5, 25, 50, 100, 200, 400 μM) or 5-FU (positive control) (7.8, 15.6, 31.2, 62.5, 125, 250, 500, 1000 μM). The viable cell numbers were determined by the MTT method. Cytotoxicity induced by DMSO (0.0078, 0.0156, 0.03125, 0.0625, 0.125, 0.25, 0.5 or 1%) was subtracted from each well. The CC50 values were determined from the dose-response curves. The tumor selectivity (TS) was calculated by the following equation: TS = mean CC50 against normal cells/mean CC50 against cancer cells [shown as (D/B) or (C/A) in Table 1]. A potency selectivity expression (PSE) was calculated by multiplying the reciprocal of average CC50 values toward cancer cell lines and the average SI values toward these cell lines and expressed as a percentage [PSE = (D/B^2) × 100].

Data set [2] deals with HSC-4 (human oral squamous cell carcinoma, tongue). In words: Cytotoxicity assay (MTT), HSC-4 cells. The class given is cell-based. The note with it: for CC50: Homo sapiens, HSC-4, 48 h, MTT; for SI HSC-4: average CC50 of nonmalignant cells / CC50 toward HSC-4. The method, then: as §1
Data set [3] concerns HSC-3 (human oral squamous cell carcinoma, tongue). In words: Cytotoxicity assay (MTT), HSC-3 cells. The class given is cell-based. The note with it: for CC50: Homo sapiens, HSC-3, 48 h, MTT; for SI HSC-3: average CC50 of nonmalignant cells / CC50 toward HSC-3. How it is done: as §1
The nature of data set [4]: Cytotoxicity assay (MTT), mean over three normal oral cells. The class given is cell-based. Conditions: human; mean of HGF, HPLF, HPC; read-out: (D) Mean CC50, human normal oral cells. How it is done:
as §1

A short description of data set [5]: Cytotoxicity assay (MTT), HPLF cells. The class given is cell-based. Conditions: human, periodontal ligament fibroblasts (HPLF), normal oral cells. The method, then: as §1
The subject of data set [6] is Human oral squamous cell carcinoma cells. In words: Cytotoxicity assay (MTT), mean over four OSCC cell lines. The class given is cell-based. The note with it: for CC50: Homo sapiens, mean of Ca9-22, HSC-2, HSC-3, HSC-4, read-out: (B) Mean CC50, human oral squamous cell carcinoma cells; for TS (D/B): mean CC50 normal cells / mean CC50 OSCC cells; for PSE (D/B^2) × 100: potency selectivity expression, expressed as a percentage. How it is done: as §1

The next data set addresses hCA II (Homo sapiens, UniProt P00918). The data set is described as follows: Carbonic anhydrase inhibition assay (esterase activity, 348 nm), hCA II. The class given is biochemical. Conditions: for Ki: Lineweaver-Burk, three concentrations; for IC50: from activity (%) versus compound plots; for times more potent than AZA toward hCA II: in terms of IC50 values.
The nature of data set [7]: Cytotoxicity assay (MTT), HPC cells. The class given is cell-based. The note with it: human, pulp cells (HPC), normal oral cells. The method, then: as §1
In data set [8] the test system is HSC-2 (human oral squamous cell carcinoma, tongue). In words: Cytotoxicity assay (MTT), HSC-2 cells. The class given is cell-based. The note with it: for CC50: Homo sapiens, HSC-2, 48 h, MTT; for SI HSC-2: average CC50 of nonmalignant cells / CC50 toward HSC-2. The method, then: as §1
The target of a further data set is hCA I (Homo sapiens, UniProt P00915). In words: Carbonic anhydrase inhibition assay (esterase activity, 348 nm), hCA I. The class given is biochemical. Conditions: for Ki: Lineweaver-Burk, three concentrations; for IC50: from activity (%) versus compound plots; for times more potent than AZA toward hCA I: in terms of IC50 values.
Chain of hCA I (P00915 whole entry): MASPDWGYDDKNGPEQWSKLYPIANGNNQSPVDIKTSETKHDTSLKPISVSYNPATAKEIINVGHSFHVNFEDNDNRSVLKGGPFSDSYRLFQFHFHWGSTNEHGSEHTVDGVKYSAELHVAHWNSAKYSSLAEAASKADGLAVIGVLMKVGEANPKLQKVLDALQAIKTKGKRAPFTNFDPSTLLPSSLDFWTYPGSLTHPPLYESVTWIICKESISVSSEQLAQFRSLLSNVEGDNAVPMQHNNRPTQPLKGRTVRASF
Data set [9] concerns Ca9-22 (human oral squamous cell carcinoma, gingiva). The data set is described as follows: Cytotoxicity assay (MTT), Ca9-22 cells. The class given is cell-based. The note with it: for TS (C/A): CC50 HGF / CC50 Ca9-22; for times of potency versus 5-FU toward Ca9-22: CC50 ratio to reference 5-FU; for CC50: Homo sapiens, Ca9-22, 48 h, MTT, triplicate wells; for SI Ca9-22: average CC50 of nonmalignant cells / CC50 toward Ca9-22. How it is done: as §1

In data set [1], `NS(=O)(=O)c1ccc(N2N=C(c3ccc(Br)cc3)CC2c2ccc(O)cc2)cc1` (centres unmarked) [Compound 13, 4-[5-(4-Hydroxyphenyl)-3-(4-bromophenyl)-4,5-dihydro-1H-pyrazol-1-yl] benzenesulfonamide] returned a CC50 at 48 h of 34.7 µM. For the same molecule, in data set [2], the CC50 is 25.7 µM and the “SI HSC-4” value was 1.4. Also, in data set [3], the midpoint of cytotoxicity, the CC50, lay at 34.7 µM and the “SI HSC-3” value was 1.0. In addition, the CC50 at 48 h in [4] amounted to 34.7 µM. The molecule also gave a CC50 at 48 h in data set [5] of 29.7 µM. For the same molecule, in data set [6], the CC50 came out at 29.7 µM, the “TS (D/B)” value is 1.2 and the “PSE (D/B^2) × 100” value amounted to 3.9. Moreover, at hCA II, affinity was put at a Ki of 0.00456 ± 0.00108 µM, the IC50 was 0.00465 µM and the “times more potent than AZA toward hCA II” value is on record as 42.9. In [7], this molecule registered a CC50 at 48 h of 39.7 µM. Also, in [8] (CC50 ratio to reference 5-FU, HSC-2), the “times of potency versus 5-FU toward HSC-2” value was 1.2. Moreover, in data set [8], half-maximal cytotoxicity (CC50) was put at 37.7 µM and the “SI HSC-2” value turned out to be 0.9. Besides, at hCA I, the affinity, expressed as Ki, was 0.00373 ± 0.00091 µM; half-maximal inhibition (IC50) was put at 0.00422 µM; the “times more potent than AZA toward hCA I” value was determined as 45.1. In [9], the “TS (C/A)” value is 1.7, the “times of potency versus 5-FU toward Ca9-22” value was 4.8, the cytotoxic concentration (CC50) was 20.7 µM and the “SI Ca9-22” value came out at 1.7.
`NS(=O)(=O)c1ccc(N2N=C(c3cccs3)CC2c2ccc(O)cc2)cc1` (centres unmarked) [Compound 14, 4-[5–(4-Hydroxyphenyl)-3-(thiophen-2-yl)-4,5-dihydro-1H-pyrazol-1-yl] benzenesulfonamide] displayed a CC50 at 48 h in [1] of 88.3 µM. Besides, in [2], half-maximal cytotoxicity (CC50) was put at 55.3 µM and the “SI HSC-4” value is reported as 1.5. In addition, in [3], the CC50 stood at 61.3 µM and the “SI HSC-3” value stood at 1.4. The CC50 at 48 h in data set [4] was 82.9 µM. Besides, the cytotoxic concentration (CC50) at 48 h in data set [5] is 73 µM. In data set [6], the CC50 came to 54.3 µM, the “TS (D/B)” value came out at 1.5 and the “PSE (D/B^2) × 100” value was determined as 2.8. In addition, on hCA II, the inhibition constant Ki stood at 0.00385 ± 0.00057 µM, the 50% inhibitory concentration (IC50) came out at 0.00545 µM and the “times more potent than AZA toward hCA II” value was found to be 36.6. In data set [7], half-maximal cytotoxicity (CC50 at 48 h) was put at 87.3 µM. In addition, in data set [8], half-maximal cytotoxicity (CC50) was put at 55 µM and the “SI HSC-2” value is 1.5. Moreover, at hCA I, affinity was put at a Ki of 0.00417 ± 0.00093 µM, the half-maximal inhibitory concentration (IC50) came out at 0.00513 µM and the “times more potent than AZA toward hCA I” value was 37.1. Further, in data set [9], the “TS (C/A)” value is reported as 1.9, the “times of potency versus 5-FU toward Ca9-22” value came to 2.2, it took 45.7 µM to reach half-maximal cytotoxicity (CC50) and the “SI Ca9-22” value turned out to be 1.8.
